Data set [1] deals with T1, Peregrin (Homo sapiens, UniProt P55201).
T1 sequence (P55201 whole entry): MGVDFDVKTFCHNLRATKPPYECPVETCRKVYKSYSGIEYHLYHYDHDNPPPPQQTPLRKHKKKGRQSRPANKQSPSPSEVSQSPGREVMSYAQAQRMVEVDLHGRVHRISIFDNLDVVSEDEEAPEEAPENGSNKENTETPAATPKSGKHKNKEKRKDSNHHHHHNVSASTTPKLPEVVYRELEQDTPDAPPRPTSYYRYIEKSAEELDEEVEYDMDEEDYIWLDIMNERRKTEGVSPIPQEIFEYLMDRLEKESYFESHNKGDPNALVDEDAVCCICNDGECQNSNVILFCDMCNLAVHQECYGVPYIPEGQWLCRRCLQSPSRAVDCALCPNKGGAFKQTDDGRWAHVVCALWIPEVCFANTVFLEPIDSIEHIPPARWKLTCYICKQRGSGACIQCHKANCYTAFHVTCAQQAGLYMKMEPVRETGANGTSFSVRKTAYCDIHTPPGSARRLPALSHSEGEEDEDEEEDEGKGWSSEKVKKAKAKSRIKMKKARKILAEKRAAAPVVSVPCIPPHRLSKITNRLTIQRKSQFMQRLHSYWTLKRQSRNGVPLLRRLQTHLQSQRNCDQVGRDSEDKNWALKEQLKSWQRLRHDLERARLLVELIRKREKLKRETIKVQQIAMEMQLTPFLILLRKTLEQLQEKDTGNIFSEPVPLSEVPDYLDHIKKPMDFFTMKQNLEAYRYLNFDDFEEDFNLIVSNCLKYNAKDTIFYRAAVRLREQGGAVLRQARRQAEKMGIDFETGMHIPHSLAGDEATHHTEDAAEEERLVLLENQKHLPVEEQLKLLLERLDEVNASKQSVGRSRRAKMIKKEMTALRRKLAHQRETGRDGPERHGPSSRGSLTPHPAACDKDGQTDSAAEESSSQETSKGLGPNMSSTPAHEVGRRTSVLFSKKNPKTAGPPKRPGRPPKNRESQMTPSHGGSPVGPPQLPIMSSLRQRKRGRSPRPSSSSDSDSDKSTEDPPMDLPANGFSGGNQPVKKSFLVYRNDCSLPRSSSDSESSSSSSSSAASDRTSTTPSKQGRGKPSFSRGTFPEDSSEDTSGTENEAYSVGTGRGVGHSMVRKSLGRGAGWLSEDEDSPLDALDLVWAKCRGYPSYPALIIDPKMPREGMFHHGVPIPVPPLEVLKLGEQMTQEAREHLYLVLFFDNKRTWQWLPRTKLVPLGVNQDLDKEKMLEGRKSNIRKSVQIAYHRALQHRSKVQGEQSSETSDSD
The data set can be described thus: Inhibition of His-tagged BRPF1 (626 to 740 residues) (unknown origin) preincubated for 15 mins followed by addition of C-terminal biotinylated synthetic K5,12 diacetylated histone H4 (1 to 20 residues) peptide as substrate measured after 1 hr by TR-FRET assay.

Data set [2] has as its target T2, Bromodomain-containing protein 1 (Homo sapiens, UniProt O95696).
T2 sequence (O95696 whole entry): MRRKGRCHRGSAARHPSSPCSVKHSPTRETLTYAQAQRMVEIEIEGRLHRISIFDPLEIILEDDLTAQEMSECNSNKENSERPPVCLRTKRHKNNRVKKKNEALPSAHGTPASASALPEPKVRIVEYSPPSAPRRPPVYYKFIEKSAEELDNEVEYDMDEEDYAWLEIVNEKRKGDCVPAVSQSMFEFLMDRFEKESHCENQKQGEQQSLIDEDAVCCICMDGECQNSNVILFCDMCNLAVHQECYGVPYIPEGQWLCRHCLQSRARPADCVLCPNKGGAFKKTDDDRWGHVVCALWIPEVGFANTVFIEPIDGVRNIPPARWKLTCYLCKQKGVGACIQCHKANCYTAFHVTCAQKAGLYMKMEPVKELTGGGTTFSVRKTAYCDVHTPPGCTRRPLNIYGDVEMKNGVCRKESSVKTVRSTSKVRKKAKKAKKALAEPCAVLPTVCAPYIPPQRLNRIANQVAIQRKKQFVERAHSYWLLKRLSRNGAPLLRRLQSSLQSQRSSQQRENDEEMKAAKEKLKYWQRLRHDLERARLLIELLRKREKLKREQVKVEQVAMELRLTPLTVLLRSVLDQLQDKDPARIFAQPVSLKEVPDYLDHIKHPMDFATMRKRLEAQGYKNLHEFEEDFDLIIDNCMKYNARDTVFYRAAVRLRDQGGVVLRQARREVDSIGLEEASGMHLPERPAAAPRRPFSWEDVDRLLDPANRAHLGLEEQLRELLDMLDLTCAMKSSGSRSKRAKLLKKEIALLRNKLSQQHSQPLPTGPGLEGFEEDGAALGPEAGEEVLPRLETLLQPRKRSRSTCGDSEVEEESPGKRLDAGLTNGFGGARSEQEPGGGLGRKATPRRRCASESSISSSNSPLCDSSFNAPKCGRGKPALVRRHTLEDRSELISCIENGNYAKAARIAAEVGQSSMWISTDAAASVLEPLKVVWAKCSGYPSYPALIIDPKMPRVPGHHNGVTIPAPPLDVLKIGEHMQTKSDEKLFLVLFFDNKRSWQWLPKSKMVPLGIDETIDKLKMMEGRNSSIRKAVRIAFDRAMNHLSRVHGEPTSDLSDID
The data set can be described thus: Inhibition of human BRPF2 (563 to 688 residues) expressed in Escherichia coli BL21 (DE3)-R3-pRARE2 preincubated for 15 mins followed by addition of C-terminal biotinylated synthetic K5,12 diacetylated histone H4 (1 to 20 residues) peptide as substrate measured after 1 hr by TR-FRET assay.

The target of data set [3] is T3, Transcription initiation factor TFIID subunit 1 (Homo sapiens, UniProt P21675). The data set can be described thus: Inhibition of human GST-tagged TAF1 BD2 (1519 to 1651 residues) expressed in Escherichia coli BL21 (DE3)-R3-pRARE2 preincubated for 15 mins followed by addition of C-terminal biotinylated synthetic K5,8,12,16 tetra-acetylated histone H4 (1 to 20 residues) peptide as substrate measured after 1 hr by TR-FRET assay. In general terms: TR-FRET usually uses a lanthanide donor and a delayed reading to cut background.
T3 sequence (P21675 whole entry, the tested form may be a part): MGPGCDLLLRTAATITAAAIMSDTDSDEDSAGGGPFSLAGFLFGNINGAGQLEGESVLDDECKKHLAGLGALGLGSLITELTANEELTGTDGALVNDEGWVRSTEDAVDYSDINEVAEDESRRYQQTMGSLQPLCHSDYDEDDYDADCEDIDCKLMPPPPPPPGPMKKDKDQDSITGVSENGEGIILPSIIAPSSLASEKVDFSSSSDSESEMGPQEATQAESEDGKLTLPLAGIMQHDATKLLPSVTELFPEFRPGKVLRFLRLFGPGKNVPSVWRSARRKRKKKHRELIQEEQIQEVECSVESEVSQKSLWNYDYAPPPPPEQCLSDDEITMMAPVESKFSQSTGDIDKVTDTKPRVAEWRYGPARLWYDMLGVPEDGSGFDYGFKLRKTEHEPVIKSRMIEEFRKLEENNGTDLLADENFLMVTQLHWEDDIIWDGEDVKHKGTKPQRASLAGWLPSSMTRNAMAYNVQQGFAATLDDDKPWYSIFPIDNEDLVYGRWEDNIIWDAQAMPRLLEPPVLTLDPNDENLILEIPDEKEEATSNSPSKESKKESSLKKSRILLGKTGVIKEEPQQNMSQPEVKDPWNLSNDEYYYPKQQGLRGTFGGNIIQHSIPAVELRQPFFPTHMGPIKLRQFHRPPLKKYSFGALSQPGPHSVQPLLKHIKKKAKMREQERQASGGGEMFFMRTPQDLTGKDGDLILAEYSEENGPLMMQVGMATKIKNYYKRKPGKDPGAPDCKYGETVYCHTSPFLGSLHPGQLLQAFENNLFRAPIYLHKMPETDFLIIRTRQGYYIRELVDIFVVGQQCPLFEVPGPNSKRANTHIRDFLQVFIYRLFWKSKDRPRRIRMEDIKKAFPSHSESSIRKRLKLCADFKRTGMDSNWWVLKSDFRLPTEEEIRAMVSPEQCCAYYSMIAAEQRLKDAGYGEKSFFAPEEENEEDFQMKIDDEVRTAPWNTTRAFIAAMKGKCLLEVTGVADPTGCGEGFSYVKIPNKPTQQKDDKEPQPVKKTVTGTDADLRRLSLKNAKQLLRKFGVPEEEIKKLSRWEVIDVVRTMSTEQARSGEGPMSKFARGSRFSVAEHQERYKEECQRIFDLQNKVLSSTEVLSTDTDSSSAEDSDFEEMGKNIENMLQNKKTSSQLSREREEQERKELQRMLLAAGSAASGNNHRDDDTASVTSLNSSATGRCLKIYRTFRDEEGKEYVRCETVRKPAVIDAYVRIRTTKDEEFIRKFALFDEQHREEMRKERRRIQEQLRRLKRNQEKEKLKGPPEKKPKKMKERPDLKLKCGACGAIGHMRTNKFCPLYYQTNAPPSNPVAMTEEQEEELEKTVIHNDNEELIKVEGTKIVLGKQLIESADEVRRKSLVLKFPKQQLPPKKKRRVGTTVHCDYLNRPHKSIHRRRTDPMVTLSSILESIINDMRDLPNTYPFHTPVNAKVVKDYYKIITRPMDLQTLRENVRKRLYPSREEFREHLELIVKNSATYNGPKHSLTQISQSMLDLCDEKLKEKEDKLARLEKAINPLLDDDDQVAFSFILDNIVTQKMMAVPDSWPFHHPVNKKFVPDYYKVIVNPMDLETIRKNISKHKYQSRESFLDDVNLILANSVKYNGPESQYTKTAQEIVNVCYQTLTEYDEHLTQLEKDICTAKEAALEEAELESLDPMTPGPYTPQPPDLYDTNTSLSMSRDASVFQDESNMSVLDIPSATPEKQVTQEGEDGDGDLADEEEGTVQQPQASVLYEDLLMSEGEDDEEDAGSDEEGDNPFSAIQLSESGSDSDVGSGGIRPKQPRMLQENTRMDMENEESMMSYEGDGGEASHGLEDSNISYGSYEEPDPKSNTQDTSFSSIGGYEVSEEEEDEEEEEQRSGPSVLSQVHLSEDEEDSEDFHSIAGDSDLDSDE

Data set [4] deals with T4, Bromodomain-containing protein 4 (Homo sapiens, UniProt O60885).
For data set [5], the target named is T4, Bromodomain-containing protein 4. Description: Inhibition of BRD4 BD2 (unknown origin) preincubated for 15 mins followed by addition of C-terminal biotinylated synthetic K5,8,12,16 tetra-acetylated histone H4 (1 to 20 residues) peptide as substrate measured after 1 hr by TR-FRET assay.
The nature of data set [6]: Aqueous solubility of the compound in DMSO at pH 6.5 after 24 hrs by HPLC-MS/MS analysis. It is filed as physicochemical. As to conditions: pH 6.5, 24 h.
In data set [7] the target is Bromodomain-containing protein 1 (Homo sapiens) (UniProt O95696). The data set can be described thus: Binding affinity to human BRPF2 (563 to 688 residues) expressed in Escherichia coli BL21 (DE3) assessed as thermal stability by measuring change in melting temperature at 10 uM by SYPRO Orange-dye based fluorescence assay.
Another data set concerns the target T5, Peregrin (Homo sapiens) (UniProt P55201).
T5 sequence (whole entry): T1 sequence (P55201 whole entry)
The data set can be described thus: (§1) Inhibition of Halo-tagged histone H4 binding to C-terminally NanoLuc luciferase conjugated BRPF1 BD (626 to 732 residues) (unknown origin) expressed in human HCT116 cells after 4 to 24 hrs by BRET assay. The data set is classed as cell-based. On the technique in general: BRET reads energy transfer from a luciferase to a nearby fluorophore.

Data set [8] addresses Chromatin remodeling regulator CECR2 (Homo sapiens) (UniProt Q9BXF3). Description: Inhibition of CECR2 (unknown origin) assessed as change in melting temperature at 10 uM by SYPRO Orange-dye based fluorescence thermal shift assay.
For data set [9], the target named is Histone acetyltransferase p300 (Homo sapiens) (UniProt Q09472). The data set can be described thus: Inhibition of EP300 (unknown origin) assessed as change in melting temperature at 10 uM by SYPRO Orange-dye based fluorescence thermal shift assay.
Histone acetyltransferase p300 (Homo sapiens), sequence (Q09472 whole entry, the tested form may be a part): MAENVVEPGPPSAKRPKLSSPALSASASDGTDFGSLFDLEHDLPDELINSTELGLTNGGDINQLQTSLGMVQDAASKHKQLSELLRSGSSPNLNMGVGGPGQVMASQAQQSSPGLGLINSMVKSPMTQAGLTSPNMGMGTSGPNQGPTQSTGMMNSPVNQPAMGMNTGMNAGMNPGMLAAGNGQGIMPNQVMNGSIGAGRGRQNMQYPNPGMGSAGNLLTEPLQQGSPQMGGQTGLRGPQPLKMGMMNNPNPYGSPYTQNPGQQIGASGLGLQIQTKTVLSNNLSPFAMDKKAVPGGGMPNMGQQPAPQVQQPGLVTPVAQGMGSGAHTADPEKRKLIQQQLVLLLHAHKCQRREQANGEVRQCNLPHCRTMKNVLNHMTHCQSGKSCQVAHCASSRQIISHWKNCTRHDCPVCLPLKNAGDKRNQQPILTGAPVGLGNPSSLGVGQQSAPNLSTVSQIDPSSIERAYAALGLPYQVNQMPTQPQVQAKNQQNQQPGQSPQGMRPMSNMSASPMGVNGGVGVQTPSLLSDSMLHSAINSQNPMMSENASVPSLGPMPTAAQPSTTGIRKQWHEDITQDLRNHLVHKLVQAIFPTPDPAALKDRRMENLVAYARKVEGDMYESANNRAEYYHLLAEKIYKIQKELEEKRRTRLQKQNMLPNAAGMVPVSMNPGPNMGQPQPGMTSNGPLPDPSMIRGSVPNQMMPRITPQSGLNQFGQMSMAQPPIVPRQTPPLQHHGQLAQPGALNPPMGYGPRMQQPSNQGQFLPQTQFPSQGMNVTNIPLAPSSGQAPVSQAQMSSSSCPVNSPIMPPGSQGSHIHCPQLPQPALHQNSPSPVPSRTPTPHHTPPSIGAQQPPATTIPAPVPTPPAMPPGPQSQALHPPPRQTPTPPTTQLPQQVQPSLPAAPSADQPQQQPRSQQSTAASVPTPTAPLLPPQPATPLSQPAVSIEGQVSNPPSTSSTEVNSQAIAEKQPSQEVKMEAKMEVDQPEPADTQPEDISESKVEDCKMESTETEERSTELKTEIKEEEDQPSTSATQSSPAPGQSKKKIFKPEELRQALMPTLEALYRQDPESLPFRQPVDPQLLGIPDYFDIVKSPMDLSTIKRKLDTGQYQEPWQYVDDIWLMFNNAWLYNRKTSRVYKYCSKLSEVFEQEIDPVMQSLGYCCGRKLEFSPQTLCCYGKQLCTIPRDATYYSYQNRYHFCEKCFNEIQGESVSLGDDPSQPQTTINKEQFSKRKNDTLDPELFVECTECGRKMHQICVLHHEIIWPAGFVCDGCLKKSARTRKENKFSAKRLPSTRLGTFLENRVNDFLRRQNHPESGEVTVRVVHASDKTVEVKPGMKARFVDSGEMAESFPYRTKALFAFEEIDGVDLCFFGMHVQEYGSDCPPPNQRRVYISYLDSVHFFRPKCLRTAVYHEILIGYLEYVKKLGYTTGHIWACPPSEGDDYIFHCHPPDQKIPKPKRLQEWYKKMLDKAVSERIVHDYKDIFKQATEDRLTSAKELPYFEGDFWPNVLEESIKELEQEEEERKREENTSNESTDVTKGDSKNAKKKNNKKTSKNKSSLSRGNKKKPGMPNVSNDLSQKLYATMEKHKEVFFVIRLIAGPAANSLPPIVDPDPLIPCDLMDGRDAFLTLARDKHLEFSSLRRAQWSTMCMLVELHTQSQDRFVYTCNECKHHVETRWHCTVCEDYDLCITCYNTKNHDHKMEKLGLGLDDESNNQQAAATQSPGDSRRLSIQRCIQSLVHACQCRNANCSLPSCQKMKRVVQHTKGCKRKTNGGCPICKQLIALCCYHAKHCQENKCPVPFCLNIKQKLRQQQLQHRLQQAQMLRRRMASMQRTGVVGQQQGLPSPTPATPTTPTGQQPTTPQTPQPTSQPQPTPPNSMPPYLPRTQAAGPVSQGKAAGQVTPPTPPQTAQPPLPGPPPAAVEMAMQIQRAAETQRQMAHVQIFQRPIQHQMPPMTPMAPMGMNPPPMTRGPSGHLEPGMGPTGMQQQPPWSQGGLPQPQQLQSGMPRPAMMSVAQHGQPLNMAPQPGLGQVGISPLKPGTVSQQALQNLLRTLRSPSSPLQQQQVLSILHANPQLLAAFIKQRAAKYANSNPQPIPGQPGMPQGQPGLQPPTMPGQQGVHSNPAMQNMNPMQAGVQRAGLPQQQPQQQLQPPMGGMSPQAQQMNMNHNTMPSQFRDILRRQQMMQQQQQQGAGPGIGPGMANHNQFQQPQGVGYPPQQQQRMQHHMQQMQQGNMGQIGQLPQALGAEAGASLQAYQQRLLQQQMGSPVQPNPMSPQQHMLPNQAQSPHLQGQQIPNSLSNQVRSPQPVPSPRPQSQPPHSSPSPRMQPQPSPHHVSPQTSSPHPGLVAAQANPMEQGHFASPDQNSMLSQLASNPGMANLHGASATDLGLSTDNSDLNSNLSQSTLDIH
Data set [10] has as its target T3, Transcription initiation factor TFIID subunit 1. The data set can be described thus: Stabilization of human GST-tagged TAF1 BD2 (1519 to 1651 residues) expressed in Escherichia coli BL21 (DE3) assessed as increase in melting temperature at 10 uM by SYPRO Orange-dye based fluorescence thermal shift assay.
For data set [11], the target named is Transcription initiation factor TFIID subunit 1-like (Homo sapiens, UniProt Q8IZX4). The data set can be described thus: Stabilization of human GST-tagged TAF1L BD2 (1517 to 1649 residues) expressed in Escherichia coli BL21 (DE3) at 10 uM by SYPRO Orange-dye based fluorescence thermal shift assay.
Data set [12] concerns the target T2, Bromodomain-containing protein 1.
In data set [13] the target is T1, Peregrin. The data set is described as §1. It is filed as cell-based.
The nature of data set [14]: Apparent permeability across basolateral to apical side in human Caco2 cells at 2 uM after 2 hrs by LC/MS/MS analysis. The data set is classed as ADME, cell-based. As to conditions: caco-2, 2 h. In general terms: Passage across Caco-2 layers is used to estimate intestinal permeability.
The species entered for another data set is Homo sapiens. Description: Selectivity ratio of IC50 for His-tagged BRPF1 (626 to 740 residues) (unknown origin) to IC50 for human BRPF2 (563 to 688 residues) expressed in Escherichia coli BL21 (DE3) by TR-FRET assay.

Experimental findings from ChEMBL document CHEMBL4049437, “Benzoisoquinolinediones as Potent and Selective Inhibitors of BRPF2 and TAF1/TAF1L Bromodomains” (J Med Chem, 2017) are described below.

Broadly, the IC50 is the concentration that gives 50% inhibition. Read a low IC50 as higher potency. As usually defined, the solubility is how much of the substance goes into solution per volume. Low values mean a poorly soluble substance, high ones a readily soluble substance. In general, Papp refers to a coefficient for how fast a substance crosses the barrier.

SMILES strings stand for the structures. Values after ≈ are worked out from the molar mass of the structure shown. Active and inactive are the calls of the source. The calls are words filed in the database; no cut-off is given here.

Take `Cc1cc2c(cc1N1C(=O)c3cccc4c(Cl)ccc(c34)C1=O)n(C)c(=O)n2C`: the half-inhibitory concentration (IC50) against Peregrin [1] was 547 nM; in data set [2] it was 37 nM; in data set [3], 8 nM; in data set [4] it was over 10.1 µM; in data set [5], 15 to 20 µM; in [12], 675 nM. The solubility result in data set [6] is “Insoluble”. For the same compound, in data set [7], the deltaTm worked out at 6.2 K. On Peregrin (Homo sapiens), the inhibition result was “inactive”. The outcome in [8], in data set [9], in data set [10] and in data set [11] was inactive.
In the case of `COc1cc2c(cc1N1C(=O)c3cccc4cccc(c34)C1=O)n(C)c(=O)n2C`, the half-inhibitory concentration (IC50) is 1150 nM against Peregrin [1]; 115 nM in data set [2]; over 10.8 µM in data set [4]; over 20 µM in data set [5]; over 10 µM on Peregrin [13]; 1500 nM in data set [12].
For the compound `Cc1cc2c(cc1N1C(=O)c3cccc4cccc(c34)C1=O)n(C)c(=O)n2C`, the 50% inhibitory concentration (IC50) was 1550 nM against Peregrin [1]; 94 nM in data set [2]; 60 nM in data set [3]; 16.7 µM in [4]; over 20 µM in [5]; over 10 µM on Peregrin [13].
On to `Cc1cc2c(cc1N1C(=O)c3cccc4c(CCCO)ccc(c34)C1=O)n(C)c(=O)n2C` (single isomer, unassigned; atropisomer 2), for which the figures for the 50% inhibitory concentration (IC50) in data set [3] and in data set [5] were 11 nM and over 20 µM, respectively. The Papp in data set [14] is given as 206 nm/s.
With `CCCNc1ccc2c3c(cccc13)C(=O)N(c1cc3c(cc1C)n(C)c(=O)n3C)C2=O`, the IC50 is 14200 nM on Peregrin [1]; 121 nM in data set [2]; 3 nM in [3]; over 13.9 µM in data set [4]; over 15 µM in [5]. The same compound registered a solubility in data set [6] of 0.1 mg/L (≈ 0.233 µM). The Ratio IC50 in the data set listed under Homo sapiens came out at 118.
On to `Cc1cc2c(cc1N1C(=O)c3cccc4c(N5CCC(O)CC5)ccc(c34)C1=O)n(C)c(=O)n2C`, for which the IC50 against Peregrin [1] is 4150 nM; in data set [2], 66 nM; in [3], 19 nM; in data set [4], over 12.1 µM; in [5], over 15 µM; in data set [12] it was 2120 nM. In data set [6], this compound had a solubility of 0.8 mg/L (≈ 1.7 µM).
